Experimental data reported in patent publication US20080307843A1, “Nitrification inhibitor and soil improver and fertilizer containing the same” (JAPAN INTERNATIONAL RESEARCH CENTER FOR AGRICULTURAL …, priority 2006, published 2008).

Experiments:
[1] = test system: Nitrosomonas europaea IF014298 with luciferase gene (luxAB); experiment: in-vitro nitrification bacteria test, biological luminescence accompanying nitrification reaction; conditions: incubation at 15° C. for 30 minutes; for 80% inhibitory concentration: concentration where the nitrification inhibitory ratio became 80%
[2] = in the ordinarily used range; RTECS No. QJ5775000; cited from earlier work

SMILES	80% inhibitory concentration [1]	toxicity [2]	50% inhibitory concentration ([1]; concentration where the nitrification-inhibitory ratio became 50%)
N#CN=C(N)N [Comparative Example 15, dicyanodiamide, reference compound]	185 ppm		
O=C1C=CC(=O)c2c(O)cccc21 [Example 1, 5-hydroxy-1,4-naphtoquinone]	0.08 ppm	low toxicity	0.03 ppm
Clc1cccc(C(Cl)(Cl)Cl)n1 [Comparative Example 14, 2-chloro-6-Trichloromethylpyridine, reference compound]	4 ppm		
